Measurements from patent US20240207446A1, “M6A-COUPLED EFFECTOR PROTEIN EXPRESSION SYSTEM AND METHODS OF MAKING AND USING SAME” (Duke University, priority 2022, published 2024).
“Also recorded” adds a separate entry of the source.

Assays:
m^6A reporter mRNA = assay: RT-qPCR of m^6A reporter mRNA abundance in HEK293T cells; assay type: cell-based, human
Procedure: (§1) Sanger sequencing and RT-qPCR. Cells were dissociated in culture using TrypLE (Gibco) treatment for 2 minutes and collected by centrifugation (6,000 rpm, 10 minutes, 4° C.). RNA was extracted using the RNA easy Plus Mini kit (Qiagen) according to the manufacturer's protocol. Extracted RNA was purified for genomic and plasmid DNA contamination by incubation with 1 μL DNase I at 37° C. for 30 minutes, and purified RNA was precipitated in 2.5 volumes of isopropanol overnight. RNA quantification was performed using the Qubit 4.0 fluorometer following the Qubit RNA broad range assay kit (Invitrogen). 500 ng of RNA was used for reverse transcription with the iScript reverse transcription supermix (Biorad) following the manufacturer's protocol. PCR was then used to […] amplify the region of interest in the m^6A sensor mRNA sequence (see Table 2). PCR products were column purified before Sanger sequencing using QiaQuick spin columns (Qiagen) and 10 μL reactions were submitted for standard amplicon sequencing (Azenta Life Sciences). C-to-U editing percentage was calculated using the EditR web server 59. To measure gene expression using gene-specific oligos, qPCR was performed using iTaq universal SYBR green Supermix (Biorad). 20 μL reactions were set up with 1 μL of cDNA for each sample, in 3 technical replicates. qPCR was performed on a Biorad CFX Duet real-time PCR instrument, and results were analyzed by normalizing threshold cycle of each target gene to 18S rRNA according to established methods^60. At least 2 biological replicates were used for each sample, and results are plotted as mean relative fold expression comparing treatment to the control group as indicated. Error bars represent standard deviation, and statistical significance was calculated using a two-way t-test assuming unequal variance.

[1] = system: METTL3 (m^6A methylation of the GEMS reporter mRNA), HEK293T cells; assay: Western blot and densitometry (EGFP, EGFP-DHFR) in HEK293T cells expressing GEMS; assay type: cell-based, human
Procedure: Western blotting. Cells were dissociated in culture plates using TrypLE (Gibco) and collected by centrifugation (6,000 rpm, 10 minutes, 4° C.). Cell pellets were resuspended in 150 μL chilled standard RIPA buffer (1% Triton X-100, 0.1% Sodium Deoxycholate, 0.1% SDS) prepared with the addition of Complete Mini protease inhibitor (Sigma Aldrich) immediately before use. Cells were resuspended and incubated on ice in RIPA buffer for 30 minutes. Cell lysates were cleared by centrifugation (13,000 rpm, 10 minutes, 4° C.) and mixed in a 1:1 ratio with NuPage LDS sample buffer (Invitrogen) with 5% Beta-Mercaptoethanol (Sigma). Samples were separated by gel electrophoresis on NuPage 4-12% Bis-Tris SDS-PAGE gels (Invitrogen), then transferred onto PVDF membranes (Amersham) using semi-dry transfer (Trans-Blot Turbo, Biorad). Membranes were blocked with 4% milk powder in 0.1% PBST and incubated with the appropriate primary antibody overnight at 4° C. Membranes were then washed with 0.1% PBST and incubated for 1 hour at room temperature in secondary antibody. Blots were washed and incubated in chemiluminescent ECL reagent solution (Amersham) then imaged in a ChemiDoc MP imaging system (BioRad) under chemiluminescent and colorimetric light. In western blot images, cyclophilin A is shown as a loading control and all western blots are representative of a minimum of 3 independent biological replicates. The following antibodies were used in this study: GFP tag Polyclonal antibody (Proteintech, 50430-2-AP). Anti-HA rabbit monoclonal antibody (Cell Signaling, 3724). Anti-Cyclophilin A antibody (Cell Signaling, 2175S). Anti-DsRed-Express2 Monoclonal Antibody (Fisher Scientific, CF180014). Anti-METTL3 antibody (abcam, ab195352). Anti-SOCS2 antibody (abcam, ab109245). Anti-p53 (7F5) Rabbit monoclonal antibody (Cell Signaling, 2527S). Recombinant Anti-JAK2 Antibody (abcam, ab108596). Recombinant Anti-STAT5 (phosphorylated Y694) (abcam, ab32364). Anti-STAT5 antibody (Cell Signaling, 25656S). Secondary antibodies used in this study: Goat Anti-Rabbit IgG HRP (Abcam, ab6721), Goat anti-mouse IgG HRP (Fisher Scientific, 62-6520).
For densitometry analysis, western blot images were quantified using ImageJ software 58. EGFP band intensity was normalized to either EGFP-DHFR or (EGFP+EGFP-DHFR) as indicated in each experiment. Similar densitometry analysis was used to measure total protein production (EGFP+EGFP-DHFR), normalized to the Cyclophilin A loading control. At least two replicates were used for each western blot quantification analysis. Bars are plotted as mean intensity ratio and error bars represent standard deviation.

m^6A sensor sequence = assay: RT-PCR/Sanger sequencing of C-to-U editing of the m^6A sensor sequence in HEK293T cells; assay type: cell-based, human
Procedure: as §1

[2] = system: m^6A sensor sequence and endogenous ACTB A1222; assay: RT-qPCR-based m^6A quantification in HEK293T cells; assay type: cell-based, human; settings: METTL3 degron cells, auxin (FIG. 3F)
Procedure: m^6A detection using RT-qPCR. RNA was extracted and treated with DNase I as described above, and a relative quantification of m^6A by RT-qPCR was adapted from^28. 4 reverse transcription reactions were set up using 150 ng of RNA for each: 2 reactions using BstI polymerase (NEB), and 2 reactions using Superscript reverse transcriptase enzyme (Fisher Scientific). For each reverse transcriptase, one reaction included a primer adjacent (+) to the site being tested (reverse compliment reverse oligo immediately downstream of the site), and the other reaction included a primer that is non-adjacent (−) to the site. The BstI reaction consisted of 10 U BstI polymerase, […], 500 nM oligos (adjacent (+) or non-adjacent (−)), in 1× ThermoPol Buffer. Reactions were incubated in a thermal cycler with the following cycling settings: 3 minutes at 25° C., 30 minutes at 50° C., and 3 minutes at 85° C. Superscript III (SSIII) reactions consisted of 200 U Superscript III, […], 25 mM MgCl2+, 10 mM dNTPs, 500 nM oligos (adjacent or non-adjacent), 2 μL 10× FS Buffer, and water up to 20 μL. […] Threshold cycle values were obtained and relative m^6A was calculated using the formula: 2−(CT Bst(−)−Ct SSIII(−)/Ct Bst(+)−Ct SSIII(+)). […] Error bars represent standard deviation, and statistical significance was calculated using a two-way t-test assuming unequal variance.

[3] = system: m^6A in cellular mRNA, HEK293T cells; assay: Mass spectrometry of m^6A in purified mRNA; assay type: cell-based, human
Procedure: Mass spectrometry analysis. Total RNA was extracted as described above, and mRNA was purified using two rounds of oligo(dT) purification with Dynabeads oligo-(dT) mRNA purification kit (Invitrogen), followed by 2 rounds of rRNA depletion using NEBNext rRNA Depletion Kit (V2.0, NEB), and an additional two rounds of oligo(dT) purification with Dynabeads oligo-(dT) mRNA purification kit (Invitrogen). All mRNA purification steps were performed following the manufacturer's instructions. Purified mRNA quality was checked using a Bioanalyzer high sensitivity RNA analysis 6000 pico kit (Agilent). For mass spectrometry analysis, 100-200 ng of purified mRNA was incubated with 2 U of Nuclease P1 (Sigma) with 2.5 mM ZnCl and 25 mM NaCl at 37° C. for 2 hours. mRNA samples were treated with 5 U of antarctic phosphatase (NEB) for 2 h at 37° C. Samples were then processed using the Xevo TQ-S mass spectrometry system. All nucleosides were quantified by retention time and ion mass transitions of 268.2 to 133.2 (A) and 282.2 to 150.1 (m^6A). Data were plotted as a percentage of m^6A relative to A. At least 2 biological replicates were performed for each sample.

[4] = system: METTL3 (m^6A methylation of the GEMS reporter mRNA), HEK293T cells; assay: GEMS EGFP fluorescence microscopy / quantitative microscopy in HEK293T cells; assay type: cell-based, human
Procedure: Plasmid Transfection. Transfections were performed using Fugene HD (Promega) according to the manufacturer's instructions. For METTL3 inhibition experiments, cells were treated with 10 μM or 30 μM of STM2457 (MedChemExpress) for 16 hours prior to transfection. Cells were treated with 0.1% DMSO (VWR Life Science) as a control. For experiments using METTL3 degron cells, 0.1 mg/mL of auxin or equivalent volume of H2O (control) was added to the cells for 24 hours prior to plasmid transfection.
Microscopy. All images were obtained using a Leica DMi8 inverted fluorescence microscope. Images were processed using the Leica LAS X software. 4-5 fields of view were obtained per sample, and representative images were selected for each experiment.
Quantitative Microscopy. HEK293T cells were plated in 10 cm cell culture-treated dishes at a density of 2.2×10^6 cells per plate and allowed to grow overnight. Cells were then treated with 30 μM of STM2457 or DMSO control for 16 hours. Cells were then transfected with the GEMS-PEST-DsRed plasmid and allowed to grow for an additional 16 hours. Prior to imaging, media was replaced with 1×PBS with 1 μg/mL Hoechst nuclear fluorescent stain (ThermoFisher Scientific) for 30 minutes. Cells were imaged using a Leica DMi8 fluorescence microscope. Images were analyzed by ImageJ image analysis software. First, fluorescence channels were separated and RGB fluorescence channels were converted to grayscale (16-bit). Binary image thresholds were set in relation to DsRed fluorescence signal and background noise was subtracted. Individual cells were selected, and pixel intensities were generated of each individual cell within the field of view. Similar binary image thresholding, cell selection, and intensity datasets were generated for the EGFP image channel. Data were analyzed by dividing EGFP signal intensity for each cell by average DsRed signal intensity. Data were plotted in JMP software (IMP 17.0, SAS Institute Inc.) by normalized EGFP signal intensity for each treatment. Boxplots represent interquartile range of the data and whiskers represent minimum and maximum data points excluding outliers. Statistical significance was calculated using a two-way t-test assuming unequal variance.

Huh-7 cells = assay: RT-qPCR gene expression in Huh-7 cells; assay type: cell-based, human; settings: increasing amounts of STM2457 (FIG. 9C)
Procedure: as §1, with “PCR products were column purified before Sanger sequencing using QiaQuick spin columns (Qiagen) and 10 μL reactions were submitted for standard amplicon sequencing (Azenta Life Sciences).” left out, “To measure gene expression using gene-specific oligos, qPCR was performed using iTaq universal SYBR green Supermix (Biorad).” left out, “At least 2 biological replicates were used for each sample, and results are plotted as mean relative fold expression comparing treatment to the control group as indicated.” left out

MOLM-13 cells = settings: AML cell line with high levels of METTL3; cited from earlier work

O=C(O)Cc1c[nH]c2ccccc12 [auxin]
m^6A reporter mRNA expression, RT-qPCR (m^6A reporter mRNA; METTL3 degron cells with and without auxin (FIG. 3G)): no significant difference
total reporter mRNA protein production (EGFP+EGFP-DHFR) relative to cyclophilin A ([1]; METTL3 degron cells expressing GEMS (FIG. 3H)): no significant difference
METTL3 and EGFP protein, western blot ([1]; METTL3 degron cells, auxin (FIG. 3C)): loss of METTL3 and EGFP
EGFP/EGFP-DHFR ratio ([1]; METTL3 degron cells, auxin (FIG. 3D)): decrease in EGFP/EGFP-DHFR
C-to-U editing of the m^6A sensor sequence (m^6A sensor sequence; METTL3 degron cells, auxin (FIG. 3E)): Editing is reduced
m^6A sensor sequence methylation, RT-qPCR [2]: decreased m^6A
m^6A in purified mRNA, mass spectrometry ([3]; METTL3 degron cells, auxin-treated (FIG. 3A)): decrease in m^6A
EGFP fluorescence from the GEMS system ([4]; HEK293T METTL3 degron cells, auxin (FIG. 3B)): reduced EGFP fluorescence

STM2457
SOCS2 mRNA expression, RT-qPCR (Huh-7 cells): dose-dependent increase
abundance of the m^6A reporter mRNA (m^6A reporter mRNA; HEK293T, 30 μM STM2457 or DMSO (FIG. 5I)): no significant difference
EGFP/EGFP-DHFR ratio, densitometry ([1]; HEK293T, 30 μM STM2457, 24 h (FIG. 5D)): reduced EGFP/EGFP-DHFR ratio
production of EGFP protein, western blot ([1]; HEK293T, 10 or 30 μM STM2457 (FIG. 5F)): decreased production of EGFP protein with increasing doses
EGFP protein, western blot ([1]; HEK293T, STM2457-treated (FIG. 5C)): decreased EGFP protein
production of EGFP protein, western blot, GEMS with EGFP-PEST ([1]; HEK293T, increasing doses of STM2457 (FIG. 5M)): decreased production of EGFP protein with increasing doses
C-to-U editing of the m^6A sensor sequence (m^6A sensor sequence; HEK293T, 30 μM STM2457, 24 h (FIG. 5J)): reduced C-to-U editing
editing of the m^6A sensor sequence (m^6A sensor sequence; HEK293T, 10 or 30 μM STM2457 (FIG. 5G)): decreased editing with increasing amounts
editing of the m^6A sensor sequence, GEMS with EGFP-PEST (m^6A sensor sequence; HEK293T, increasing amounts of STM2457 (FIG. 5N)): decreased editing with increasing amounts
proliferation and colony formation (MOLM-13 cells): reduced proliferation and colony formation
m^6A in purified mRNA, mass spectrometry ([3]; HEK293T, STM2457 treatment (FIG. 5H)): depletion of m^6A
EGFP fluorescence from the GEMS system ([4]; HEK293T, 30 μM STM2457, 24 h (FIG. 5A)): reduced
EGFP fluorescence intensity, quantitative microscopy ([4]; HEK293T, 30 μM STM2457, EGFP normalized to DsRed (FIG. 5B)): significant reduction
m^6A-coupled EGFP fluorescence ([4]; HEK293T, 10 or 30 μM STM2457, 24 h, DsRed internal control (FIG. 5E)): increased depletion
EGFP signal, GEMS with EGFP-PEST ([4]; HEK293T, 10 or 30 μM STM2457, GEMS-EGFP-PEST, compared to GEMS-EGFP (FIG. 5L)): greater depletion at lower doses
EGFP fluorescence / GEMS activity activated by dCas13-GEMS ([4]; HEK293T, STM2457 for 16 hours, then dCas13-GEMS and gRNAs (FIG. 8F)): abolished; also recorded: decreased

C[C@@H]1C[C@@H]([C@H](O)CC2CC(=O)NC(=O)C2)C(=O)[C@@H](C)C1 [cycloheximide]
m^6A reporter mRNA levels (m^6A reporter mRNA; HEK293T with GEMS, cycloheximide 0-120 minutes (FIG. 3I)): no effect
